Measured values published in ChEMBL document CHEMBL1143967, “Targeted inhibition of hedgehog signaling by cyclopamine prodrugs for advanced prostate cancer” (Bioorg Med Chem, 2008).
Activity calls are given as the source filed them. The rule behind the calls is not given here. *1 amine or outer side, *2 acyl side, *3 side chain or, on linkers, in order; H or OH if unused. Where a SMILES comes first, the peptide text is derived from it. The star is where a group is joined. X1 = CC1=C2C[C@H]3[C@@H](CC=C4C[C@@H](O)CC[C@@]43C)[C@@H]2CC[C@]12O[C@@H]1C[C@H](C)CN(*)[C@H]1[C@H]2C; Morpholide = C1CN(*)CCO1; CO = O=C([*:1])[*:2]

Tests used:
DU-145 [1] = test: Growth inhibition of human DU145 cells at 5 uM after 96 hrs; format: functional, cell-based
DU-145 [2] = test: Growth inhibition of human DU145 cells at 10 uM after 96 hrs; format: functional, cell-based
[3] = Hydrolysis of prodrug assessed as half life in presence PSA; format: ADME
DU-145 [4] = test: Increase in growth inhibition of human DU145 cells in presence of PSA after 96 hrs; format: functional, cell-based

| t1/2 [3] [h] | SMILES | Activity (DU-145 [1]) | Activity (DU-145 [2]) | Activity (DU-145 [4]) |
| --- | --- | --- | --- | --- |
|  | CC1=C2C[C@H]3[C@@H](CC=C4C[C@@H](O)CC[C@@]43C)[C@@H]2CC[C@]12O[C@@H]1C[C@H](C)CN[C@H]1[C@H]2C | Active | Active |  |
| 22 | CC1=C2C[C@H]3[C@@H](CC=C4C[C@@H](O)CC[C@@]43C)[C@@H]2CC[C@]12O[C@@H]1C[C@H](C)CN(C(=O)[C@H](CCC(N)=O)NC(=O)[C@H](CC(C)C)NC(=O)[C@H](CCCCN)NC(=O)[C@H](CO)NC(=O)[C@H](CO)NC(=O)[C@H](Cc3c[nH]cn3)NC(=O)N3CCOCC3)[C@H]1[C@H]2C ({Morpholide-CO}-HSSKLQ-X1) |  |  | Active |
| 3.2 | CC1=C2C[C@H]3[C@@H](CC=C4C[C@@H](O)CC[C@@]43C)[C@@H]2CC[C@]12O[C@@H]1C[C@H](C)CN(C(=O)[C@H](CCC(N)=O)NC(=O)[C@H](Cc3ccc(O)cc3)NC(=O)[C@H](CCCCN)NC(=O)[C@H](CO)NC(=O)[C@H](CO)NC(=O)N3CCOCC3)[C@H]1[C@H]2C ({Morpholide-CO}-SSKYQ-X1) |  |  |  |
